Reference: patent publication US20130096054A1, “LATENT HUMAN IMMUNODEFICIENCY VIRUS REACTIVIATION” (priority 2010, published 2013)
Several values for one entry are separate records, joined by “and”; a condition that tells them apart may be missing. Equal entries are not always repeated. *1 amine or outer side, *2 acyl side, *3 side chain or, on linkers, in order; H or OH if unused. Where a SMILES comes first, the peptide text is derived from it. Bridges are numbered along the chain shown (N, C = ends). Roman numbers before positions name the chains, in order. [ ]: non-standard residue; d: D form. Actinocin(9to1) = Cc1c2oc3c(C)ccc(C(=O)[*:1])c3nc-2c(C(=O)[*:2])c(N)c1=O; NMeV = CN[C@H](C(=O)O)C(C)C; Sar = CNCC(=O)O

Experiments:
[1] = system: latently HIV-1 infected monocytic THP89GFP cells; assay: HIV-1 reactivation in latently HIV-1 infected monocytic THP89GFP cells; format: cell-based
[2] = system: latently HIV-1 infected reporter T cell lines (5F3, 8E12, CA5 and 12D4); assay: HIV-1 reactivation in latently HIV-1 infected reporter T cell lines (EGFP, flow cytometry); format: cell-based
Description: FIGS. 1A and 1B show culture supernatants from Massilia timonae reactivate latent HIV-1 infection. […] Untreated control cells and HRF-treated cells were subjected to flow cytometric analysis to determine enhanced green fluorescent protein (EGFP) expression as a direct and quantitative marker of HIV-1 expression 24 hours post stimulation. FSC/SSC dot plots are represented to evaluate cell viability as a function of changes in the FSC (cell size)—SSC (granularity) phenotype of the cells. FIG. 1B is a histogram showing the reproducibility of the observed HIV-1 reactivation. Three independent preparations of HRF (batches HRF1-3) on four different latently infected T cell lines (5F3, 8E12, CA5 and 12D4) were tested. The percentage of EGFP positive cells following stimulation is depicted in the histogram. Cell culture supernatants of Pseudomonas aeruginosa cultures, grown under similar conditions, were used as specificity controls.

[3] = system: latently HIV-2 infected J2574 reporter T cells (HIV-2 7312A); assay: Reactivation of latent HIV-2 infection in J2574 reporter T cells; format: cell-based
Description: J2574 reporter T cells were infected with HIV-2 7312A and a latently infected cell population was established (>90% latently infected cells). The cell population was then pretreated with varying concentrations of dactinomycin (0-8 ng/ml) for 18 hours and then either left untreated (C) or stimulated with a sub-optimal dose of HRF, which by itself triggered reactivation in 10% of the cells. Reactivation levels were determined 24 hours post HRF activation by quantifying the level of GFP-positive cells using flow cytometric analysis.
J2574 reporter T cells were generated by retrovirally transducing Jurkat T cells with a HIV-1 reporter construct (p2574) in which the HIV-1 LTR controls the expression of GFP. The HIV-1 LTR and the GFP gene are separated by a 2,500 base pair (bp) spacer element. Lentiviral particles were produced by transfecting 293T cells with p2574 and supplying gag-pol-rev-tat in trans. VSV-G was used as viral envelope protein. Following lentiviral transduction of Jurkat cells, all cells that spontaneously expressed GFP were removed by cell sorting. The GFP-negative population was then activated with PMA to identify all cells that would harbor an inducible LTR-GFP-LTR integration event. Cells that turned GFP-positive following stimulation were again selected by cell sorting. GFP expression in this population ceased after a few days leaving a population of GFP-negative reporter cells. The amount of founder cells for this population is calculated to represent >50,000 individual integration events.
To determine the ability of dactinomycin to prime a latent HIV-2 infection, a latently HIV-2 infected population of GFP reporter T cells were tested. Briefly, to create the latent HIV-2 infected population, J2574 reporter cells were infected with HIV-2 7312A and a population of latently HIV-2 infected cells was generated by removing the actively infected, GFP-positive cells using a fluorescence activated cell sorter.

[4] = system: latently HIV-1 infected EF7 cells; assay: HIV-1 reactivation in latently HIV-1 infected EF7 T cells (converse sense integration); format: cell-based; conditions: TNF-α after 4 ng/ml dactinomycin for 18 hours
Description: FIGS. 13A-B show the effect of dactinomycin on latent infection as a function of the orientation of integration relative to the direction of host-gene transcription. HIV-1 can integrate in the same transcriptional orientation as the host-gene or in the converse sense. Two latently HIV-1 infected T cell lines, which were determined to have HIV-1 integrated in the same sense orientation (CA5 cells) (FIG. 13A) and in the converse sense orientation (EF7 cells) (FIG. 13B) were used. For either cell line, the host-gene name, the position of integration and the chromosome number is given. For either T cell line, reactivation levels achieved by TNF-α treatment alone or by TNF-α stimulation following pretreatment with 4 ng/ml dactinomycin for 18 hours are shown. Reactivation levels were determined using flow cytometric analysis for GFP expression. The gray dotted line represents maximum achievable reactivation levels using PMA.

[5] = system: latently HIV-1 infected CA5 T cells
Description: CA5 T cells were pretreated with increasing concentrations of dactinomycin (DM) (FIG. 11A), the DNA intercalator daunorubicin (DR) (FIG. 11B), or the transcription inhibitors DRB (FIG. 11 C) and α-amanitin (FIG. 11D) (concentrations indicated). The cells were then left unstimulated (white circles) or activated with a sub-optimal concentration of HRF (black circles). Reactivation levels were determined as the percentage of GFP-positive cells 24 hours after stimulation. Viability of the cells correlates with the size of the symbol (size range adjusted to 5-95%).
Infection levels in the cell cultures were monitored by flow cytometric analysis of EGFP expression. Flow cytometric analysis was performed on a GUAVA EasyCyte (Millipore; Billerica, Mass.), or a LSRII (Becton & Dickinson; Franklin Lakes, N.J.).
Bacteria from various sources were isolated on TSA II agar plates containing 5% sheep blood. Bacterial isolates were then grown in RPMI 1640 medium supplemented with 10% FBS. After two days of incubation at 37° C. bacteria were pelleted and resuspended in RPMI medium to an optical density (OD600) of 8, aliquoted and frozen at −80° C. Unless otherwise indicated, Massilia timonae was grown in RPMI 1640 medium supplemented with 10% FBS. Typically, medium was inoculated with Massilia timonae from frozen stocks to an OD600 of 0.01. After 48 hours at 37° C., the culture was centrifuged at 3200 g to separate bacteria from the culture medium. Bacteria were resuspended in fresh medium to an OD600 of 8 and frozen to be used as references and stock cultures. The supernatant was then centrifuged at 10,000 g for 20 minutes and sterilized by passage through an 0.2 μm PVDF filter with low protein binding ability. HRF activity was determined by its ability to reactivate latent HIV-1 infection in CA5 cells. Only supernatants of which 6 μl reactivated infection in at least 60% of CA5 cells were used to study HRF properties.
(§1) Infection levels in the cell cultures were monitored by flow cytometric (FCM) analysis of GFP expression. FCM analysis was performed on a GUAVA EasyCyte (GUAVA Technologies, Inc.; Millipore; Billerica, Mass.) and a BD FACSCalibur or a LSR11 (Becton & Dickinson; Franklin Lakes, N.J.). Cell sorting experiments were performed using a FACSAria™ Flow Cytometer (Becton&Dickinson). Data analysis was performed using either CellQuest (Becton&Dickinson) or GUAVA Express (GUAVA Technologies, Inc.).
To identify the optimal concentration of dactinomycin, CA5 T cells were pretreated with increasing concentrations of dactinomycin (0.0001 and 1 μg/ml), and then left untreated or stimulated with a sub-optimal concentration of HRF or TNF-α. […] Twenty four hours after activator addition, levels of HIV-1 reactivation were determined as the percentage of GFP-positive cells using flow cytometric analysis, which allowed for the simultaneous determination of cell viability.

[6] = system: chronically actively infected T cell lines JNLG#35 and JNLG#44; assay: Active HIV-1 transcription in chronically actively infected GFP-reporter T cells (GFP MCF); format: cell-based; conditions: 48 hours after addition
Description: Changes in HIV-1 transcription levels were determined after 48 hours by measuring GFP mean channel fluorescence intensity (GFP MCF). GFP MCF was plotted over the drug concentration for dactinomycin (FIG. 12A), the DNA intercalators daunorubicin (DM) (FIG. 12B) and rebeccamycin (RM) (FIG. 12C), as well as the transcription inhibitors ICRF-193 (FIG. 12D), DRB (FIG. 12E) and α-amanitin (FIG. 12F). The size of symbols indicates the respective cell viability in the sample (size range adjusted to 5-95%).
For this purpose, each of the compounds was titrated over a relevant range of concentrations on two chronically actively infected T cell lines (JNLG#35 and JNLG#44). These clonal cell lines are infected with a GFP-reporter virus. Forty eight hours after addition of the compounds, the effect of each compound on HIV-1 transcription was determined by flow cytometric analysis quantifying GFP mean channel fluorescence intensity (MCF).

[7] = system: latently HIV-1 infected J89GFP T cells; assay: HIV-1 reactivation in latently HIV-1 infected J89GFP T cells (flow cytometry / HTS); format: cell-based
Description: as §1

[8] = target: T1, positive transcription elongation factor (P-TEFb), a complex of CDK9 and Cyclin T1 (UniProt P50750 1-372; O60563 1-726); assay: glycerol gradient (10-45%) sedimentation of J89GFP cell lysates, Western blot of fractions with anti-CDK9 and anti-HEXIM-1
T1 construct: also called CDK9/CycT1; small complex
T1 sequence (P50750 whole entry, chain 1 of 2): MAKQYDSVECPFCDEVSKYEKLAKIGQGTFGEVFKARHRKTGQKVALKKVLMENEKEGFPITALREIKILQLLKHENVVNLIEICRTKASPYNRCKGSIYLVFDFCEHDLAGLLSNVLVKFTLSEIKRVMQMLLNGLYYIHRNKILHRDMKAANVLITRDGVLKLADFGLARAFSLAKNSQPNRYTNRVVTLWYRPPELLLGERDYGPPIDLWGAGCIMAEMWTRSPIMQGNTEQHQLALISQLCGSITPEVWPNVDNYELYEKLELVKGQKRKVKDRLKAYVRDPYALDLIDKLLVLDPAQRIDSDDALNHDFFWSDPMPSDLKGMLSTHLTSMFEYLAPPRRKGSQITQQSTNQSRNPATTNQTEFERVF
T1 sequence (O60563 whole entry, chain 2 of 2): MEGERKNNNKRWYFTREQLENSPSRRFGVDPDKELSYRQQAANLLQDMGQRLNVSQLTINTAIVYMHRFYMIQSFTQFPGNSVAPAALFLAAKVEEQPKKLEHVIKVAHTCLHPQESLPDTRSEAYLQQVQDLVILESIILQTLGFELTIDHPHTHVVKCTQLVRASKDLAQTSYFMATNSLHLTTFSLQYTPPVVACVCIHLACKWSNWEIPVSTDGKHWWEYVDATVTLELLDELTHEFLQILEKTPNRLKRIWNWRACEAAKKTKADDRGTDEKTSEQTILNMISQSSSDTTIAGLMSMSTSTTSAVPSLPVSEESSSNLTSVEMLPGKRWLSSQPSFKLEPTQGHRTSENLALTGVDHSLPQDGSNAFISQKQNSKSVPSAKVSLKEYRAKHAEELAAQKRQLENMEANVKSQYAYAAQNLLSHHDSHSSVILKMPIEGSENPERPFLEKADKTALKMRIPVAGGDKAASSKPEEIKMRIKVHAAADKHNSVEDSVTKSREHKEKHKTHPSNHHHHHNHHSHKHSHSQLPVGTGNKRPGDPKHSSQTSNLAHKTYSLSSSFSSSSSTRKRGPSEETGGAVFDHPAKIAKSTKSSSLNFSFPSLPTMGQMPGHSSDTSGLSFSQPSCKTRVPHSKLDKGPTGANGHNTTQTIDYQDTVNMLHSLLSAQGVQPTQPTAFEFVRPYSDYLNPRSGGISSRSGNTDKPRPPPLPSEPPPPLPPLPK
Description: Each gradient fraction was separated on a 10% SDS-PAGE gel and transferred by Western blot. […] Band densities were determined using ImageJ and are presented as relative band density. […] Band densities were determined using ImageJ and are presented as relative band density.
Ten million J89GFP or CA5 T cells were left untreated or treated with 0.004 μg/mL, […] 1 μg/mL dactinomycin for 18 hours or 1 hour, respectively. Cells were washed twice with cold PBS, then lysed for 30 minutes on ice in lysis buffer (0.5% TritonX100, 20 mM HEPES (pH7.9), 150 mM NaCl, 20 mM KCl, 2 mM MgCl2, 1 mM DTT, 0.2 mM EDTA, and protease inhibitor cocktail (P8340; SIGMA)), followed by centrifugation at 14,000 rpm for 10 minutes. The same amount of protein lysate was fractionated on 5 ml of a 10-45% glycerol gradient in lysis buffer in a SW-Ti55 rotor (Beckman Coulter; Miami, Fla.) for 16 hours at 45,000 rpm. Fractions were resolved on 10% SDS-PAGE and transferred to polyvinylidene fluoride membrane. The antibodies used for Western blotting were rabbit anti-Cdk9 (sc-484; Santa Cruz Biotechnology; Santa Cruz, Calif.) and rabbit anti-HEXIM1 (ab25388; Abcam; Cambridge, Mass.), respectively. […]

lipopolysaccharide
reactivation of latent HIV-1 infection [1]: reactivated HIV-1 infection
reactivation of latent HIV-1 infection [2]: only reactivated HIV-1 infection in the latently HIV-1 infected monocytic THP89GFP cells

Cc1c2oc3c(C)ccc(C(=O)N[C@@H]4C(=O)N[C@H](C(C)C)C(=O)N5CCC[C@H]5C(=O)N(C)CC(=O)N(C)[C@@H](C(C)C)C(=O)O[C@@H]4C)c3nc-2c(C(=O)N[C@@H]2C(=O)N[C@H](C(C)C)C(=O)N3CCC[C@H]3C(=O)N(C)CC(=O)N(C)[C@@H](C(C)C)C(=O)O[C@@H]2C)c(N)c1=O [dactinomycin] (I: T[dV]P[Sar][NMeV] / II: T[dV]P[Sar][NMeV]; ester I:1-I:C, II:1-II:C; linker I:N-II:N via Actinocin(9to1))
concentration range of efficient priming of latent HIV-2 infection ([3]; 18 hours pretreatment, then sub-optimal HRF): 2 to 8 ng/mL
HIV-2 reactivation levels on costimulation ([3]; dactinomycin pretreatment plus sub-optimal HRF): up to 90%
priming effect, virus integrated in converse transcriptional orientation [4]: exerted its priming effect in each integration scenario
concentration at which it starts to act as an inhibitor of HIV-1 expression and reactivation (onset of drug toxicities) [5]: ≥ 10 ng/mL
priming effects with low concentrations of TNF-α or PMA as reactivating agents [5]: also observed
concentration of optimal priming activity ([5]; 18 hours pretreatment, then sub-optimal HRF or TNF-α): about 4 ng/ml and ~3.18 nM
priming effect, virus integrated in same transcriptional orientation as host-gene ([5]; TNF-α after 4 ng/ml dactinomycin for 18 hours): exerted its priming effect in each integration scenario
priming effect on HIV-1 reactivation by sub-optimal dose of HRF ([5]; pretreatment with increasing concentrations, then sub-optimal HRF): strong priming effect
lowest concentration at which a priming effect was observed ([5]; then sub-optimal HRF or TNF-α): 0.5 ng/mL
effect on active HIV-1 infection / transcription (GFP MCF) [6]: without boosting active HIV-1 infection
effect on active HIV-1 infection / transcription (GFP MCF) ([6]; listed as Dactinomycin): did not boost active infection, but rather inhibited active infection
priming for reactivation in combination with sub-optimal TNF-α ([7]; 18 hours pretreatment): potently primed latent HIV-1 infection for reactivation
HIV-1 reactivating capacity by itself ([7]; no activator): did not exhibit HIV-1 reactivating capacity by itself

B1: HEXIM-1 (other, UniProt O94992 1-359, looked up)
chain: MAEPFLSEYQHQPQTSNCTGAAAVQEELNPERPPGAEERVPEEDSRWQSRAFPQLGGRPGPEGEGSLESQPPPLQTQACPESSCLREGEKGQNGDDSSAGGDFPPPAEVEPTPEAELLAQPCHDSEASKLGAPAAGGEEEWGQQQRQLGKKKHRRRPSKKKRHWKPYYKLTWEEKKKFDEKQSLRASRIRAEMFAKGQPVAPYNTTQFLMDDHDQEEPDLKTGLYSKRAAAKSDDTSDDDFMEEGGEEDGGSDGMGGDGSEFLQRDFSETYERYHTESLQNMSKQELIKEYLELEKCLSRMEDENNRLRLESKRLGGDDARVRELELELDRLRAENLQLLTENELHRQQERAPLSKFGD
binding result [8]: binds
